Literature values in patent publication US20050153276A1 (priority 2001, published 2005).

System: human hepatocyte and neuroblastoma cells
Settings: cited from earlier work

SMILES: CCOP(=S)(OCC)Oc1ccc([N+](=O)[O-])cc1 [parathion]
- effect on cell metabolism (acidification rate): opposite effects on hepatocyte and neuroblastoma cell metabolism

SMILES: CCOP(=O)(OCC)Oc1ccc([N+](=O)[O-])cc1 [paraoxon]
- effect on cell metabolism (acidification rate): opposite effects on hepatocyte and neuroblastoma cell metabolism
